The text below walks through data of patent US4634704A, “Anti-allergic five membered heterocyclic ring containing N-(bicyclic heterocycyl)-4-piperidinamines” (Janssen Pharmaceutica, N.V., priority 1984, dated 1987).

Counter-ions that a name gives are not always drawn.

The subject of the first experiment is compound 48/80-induced lethality. The experiment can be described thus: Protection of rats from compound 48/80-induced lethality. The class given is in vivo, rat (male, inbred Wistar strain). The note with it: Rattus norvegicus, 4 h, read-out: compound 48/80 lethality test in rats-ED50, dose protecting 50% of animals; subcutaneous or oral, 1 h before compound 48/80 0.5 mg/kg i.v.; survival after 4 h. Here is the method:
Protection of rats from compound 48/80-induced lethality.
The protection from compound 48/80-induced lethal circulatory collapse appears to be a simple way of evaluating quantitatively the antihistaminic activity of test compounds. Male rats of an inbred Wistar strain, weighing 240-260 g were used in the experiment. After overnight starvation the rats were transferred to conditioned laboratories (temp.=21±1° C., relative humidity=65±5%).
The rats were treated subcutaneously or orally with a test compound or with the solvent (NaCl solution, 0.9%). […] Survival after 4 hours is therefore considered to be a safe criterion of a protective effect of drug administration.
The ED50 -values of the compounds of formula (I) are listed in the first column of table 1. Said ED50 -values are the values in mg/kg body weight at which the tested compounds protect 50% of the tested animals against compound 48/80-induced lethality.
Regarding `c1ccc(Cn2c(NC3CCN(CCNc4nccs4)CC3)nc3ccccc32)nc1` [Compound 27], the ED50 is 0.04 mg/kg.
For the compound `Cc1ccc(Cn2c(NC3CCN(CCNc4nccs4)CC3)nc3ccccc32)cc1` [Compound 62], the ED50 is 0.16 mg/kg.
The same measure, in the same setting: the result for `CNc1nc(CCN2CCC(Nc3nc4ccccc4n3Cc3ccc(F)cc3)CC2)cs1` [Compound 98, 1-[(4-fluorophenyl)methyl]-N-[1-[2-[2-(methylamino)-4-thiazolyl]-ethyl]-4-piperidinyl]-1H-benzimidazol-2-amine] reads 0.16 mg/kg; that for `CNC(=O)N(CCN1CCC(Nc2nc3ccccc3n2Cc2ccc(F)cc2)CC1)c1nccs1` [Compound 103, N-[2-[4-[[1-[(4-fluorophenyl)methyl]-1H-benzimidazol-2-yl]amino]-1-piperidinyl]ethyl]-N'-methyl-N-(2-thiazolyl)urea], 0.08 mg/kg.
Same read-out and setting: the result for `CC(c1ccc(Cl)cc1)n1ccnc1NCCN1CCC(Nc2nc3ccccc3n2Cc2ccc(F)cc2)CC1` (centres unmarked) [Compound 106, N-[1-[2-[[1-[1-(4-chlorophenyl)ethyl]-1H-imidazol-2-yl]amino]ethyl]-4-piperidinyl]-1-[(4-fluorophenyl)methyl]-1H-benzimidazol-2-amine cyclohexanesulfamate(1:3).dihydrate] reads 0.63 mg/kg; that for `Cn1c(C(=O)NCCN2CCC(Nc3nc4ccccc4n3Cc3ccc(F)cc3)CC2)cc2ccccc21` [Compound 78, N-[2-[4-[[1-[(4-fluorophenyl)methyl]-1H-benzimidazol-2-yl]amino]-1piperidinyl]ethyl]-1-methyl-1H-indole-2-carboxamide], 0.16 mg/kg.
The same measure, in the same setting: the result for `Cn1cnc([N+](=O)[O-])c1NCCN1CCC(Nc2nc3ccccc3n2Cc2ccc(F)cc2)CC1` [Compound 12] reads 0.31 mg/kg; that for `CCn1nnnc1SCCN1CCC(Nc2nc3ccccc3n2Cc2ccc(F)cc2)CC1` [Compound 74, N-[1-[2-[(1-ethyl-1H-tetrazol-5-yl)thio]ethyl]-4-piperidinyl]-1-[(4-fluorophenyl)methyl]-1H-benzimidazol-2-amine], 0.08 mg/kg; that for `c1coc(Cn2c(NC3CCN(CCNc4nccs4)CC3)nc3cccnc32)c1` [Compound 56], 0.01 mg/kg.
Consider `O=C(NCCN1CCC(Nc2nc3ccccc3n2Cc2ccc(F)cc2)CC1)c1cc2ccccc2[nH]1` [Compound 76, N-[2-[4-[[1-[(4-fluorophenyl)methyl]-1H-benzimidazol-2-yl]amino]-1-piperidinyl]ethyl]-1H-indole-2-carboxamide], for which the ED50 worked out at 0.16 mg/kg.
Still for that read-out and setting: the result for `CCc1nnc(NCCN2CCC(Nc3nc4ccccc4n3Cc3ccc(F)cc3)CC2)s1` [Compound 33] reads 0.16 mg/kg; that for `Nc1ccc(Cn2c(NC3CCN(CCNc4nccs4)CC3)nc3ccccc32)cc1` [Compound 35], 0.31 mg/kg; that for `O=C(Cc1c[nH]c2ccccc12)NCCN1CCC(Nc2nc3ccccc3n2Cc2ccc(F)cc2)CC1` [Compound 77, N-[2-[4-[[1-[(4-fluorophenyl)methyl]-1H-benzimidazol-2-yl]amino]-1-piperidinyl]ethyl]-1H-indol-3-acetamide], 0.16 mg/kg.
Same read-out and setting: the result for `Fc1ccc(Cn2c(NC3CCN(CCOc4nc5ccccc5s4)CC3)nc3ccccc32)cc1` [Compound 67, N-[1-[2-(2-benzothiazolyloxy)ethyl]-4-piperidinyl]-1-[(4-fluorophenyl)methyl]-1H-benzimidazol-2-amine] reads 0.63 mg/kg; that for `N=C(NCCN1CCC(Nc2nc3ccccc3n2Cc2ccc(F)cc2)CC1)Nc1nc2ccccc2[nH]1` [Compound 66, N-(1H-benzimidazol-2-yl)-N'-[2-[4-[[1-[(4-fluorophenyl)methyl]-1H-benzimidazol-2-yl]amino]-1-piperidinyl]ethyl]guanidine trihydrochloride.dihydrate], 0.31 mg/kg.
Turning to `Fc1ccc(Cn2c(NC3CCN(CCNc4nccs4)CC3)nc3ccncc32)cc1` [Compound 23], the ED50 is 0.08 mg/kg.
With `Fc1ccc(Cn2c(NC3CCN(CCc4csc(-c5ccccc5)n4)CC3)nc3ccccc32)cc1` [Compound 92, 1-[(4-fluorophenyl)methyl]-N-[1-[2-(2-phenyl-4-thiazolylethyl]-4-piperidinyl]-1H-benzimidazol-2-aminedihydrochloride monohydrate], the ED50 worked out at 0.63 mg/kg.
Same read-out and setting: the result for `c1ccc(Cn2c(NC3CCN(CCNc4nccs4)CC3)nc3cccnc32)nc1` [Compound 57] reads 0.005 mg/kg.
Regarding `Fc1ccc(Cn2ccnc2NCCN2CCC(Nc3nc4ccccc4n3Cc3ccc(F)cc3)CC2)cc1` [Compound 82, 1-[(4-fluorophenyl)methyl]-N-[1-[2-[[1-[(4-fluorophenyl)methyl]-1H-imidazol-2-yl]amino]ethyl]-4-piperidinyl]-1H-benzimidazol-2-amine cyclohexanesulfamate(1:3).dihydrate], the ED50 is 0.16 mg/kg.
`CN(CCN1CCC(Nc2nc3ccccc3n2Cc2ccc(F)cc2)CC1)c1nccs1` [Compound 50, 1-[(4-fluorophenyl)methyl]-N-[1-[2-[methyl(2-thiazolyl)amino]ethyl]-4-piperidinyl]-1H-benzimidazol-2-amine]: the ED50 was found to be 0.08 mg/kg.
The same measure, in the same setting: the result for `Fc1ccc(Cn2c(NC3CCN(CCNc4nccn4-c4ncccn4)CC3)nc3ccccc32)cc1` [Compound 105] reads 0.16 mg/kg; that for `O=[N+]([O-])c1ccc(Cn2c(NC3CCN(CCNc4nccs4)CC3)nc3ccccc32)cc1` [Compound 43], 0.31 mg/kg.
The same measure, in the same setting: the result for `CN(c1nc2ccccc2n1Cc1ccc(F)cc1)C1CCN(CCNc2nccs2)CC1` [Compound 26] reads 0.02 mg/kg; that for `CNC(=S)N(CCN1CCC(Nc2nc3ccccc3n2Cc2ccc(F)cc2)CC1)c1nccs1` [Compound 104, N-[2-[4-[[1-[(4-fluorophenyl)methyl]-1H-benzimidazol-2-yl]amino]-1-piperidinyl]ethyl]-N'-methyl-N-(2-thiazolyl)thiourea], 0.16 mg/kg.
Turning to `Fc1ccc(Cn2c(NC3CCN(CCSc4nc5ccccc5o4)CC3)nc3ccccc32)cc1` [Compound 73, N-[1-[2-[(2-benzoxazolyl)thio]ethyl]-4-piperidinyl]-1-[(4-fluorophenyl)methyl]-1H-benzimidazol-2-amine], the ED50 amounted to 0.63 mg/kg.
Still for that read-out and setting: the result for `O=[N+]([O-])c1cnc(NCCN2CCC(Nc3nc4ccccc4n3Cc3ccc(F)cc3)CC2)s1` [Compound 32] reads 0.63 mg/kg.
Still for that read-out and setting: the result for `CCn1nnnc1OCCN1CCC(Nc2nc3ccccc3n2Cc2ccc(F)cc2)CC1` [Compound 10, N-[1-[2-[(1-ethyl-1H-tetrazol-5-yl)oxy]ethyl]-4-piperidinyl]-1-[(4-fluorophenyl)methyl]-1H-benzimidazol-2-amine (E)-2-butenedioate (2:5)] reads 0.04 mg/kg; that for `Fc1ccc(Cn2c(NC3CCN(CCCCNc4nccs4)CC3)nc3ccccc32)cc1` [Compound 53], 0.31 mg/kg; that for `Fc1ccc(Cn2c(NC3CCN(CCNc4nc5ccccc5s4)CC3)nc3ccccc32)cc1` [Compound 19], 0.31 mg/kg.
On the same count and under the same terms, the result for `Fc1ccc(Cn2c(NC3CCN(CCCNc4nccs4)CC3)nc3ccccc32)cc1` [Compound 20] reads 0.16 mg/kg; that for `COc1ccc(Cn2c(NC3CCN(CCNc4nccs4)CC3)nc3ccccc32)cc1` [Compound 24], 0.31 mg/kg.
In the case of `Nc1nc(CCN2CCC(Nc3nc4ccccc4n3Cc3ccc(F)cc3)CC2)cs1` [Compound 91, N-[1-[2-(2-amino-4-thiazolyl)ethyl]-4-piperidinyl]-1-[(4-fluorophenyl)methyl]-1H-benzimidazol-2-amine], the ED50 was determined as 0.08 mg/kg.
The same measure, in the same setting: the result for `CCOC(=O)N(CCN1CCC(Nc2nc3ccccc3n2Cc2ccc(F)cc2)CC1)c1nccs1` [Compound 101, ethyl[2-[4-[[1-[(4-fluorophenyl)methyl]-1H-benzimidazol-2-yl]amino]-1-piperidinyl]ethyl](2-thiazolyl)carbamate] reads 0.31 mg/kg.
Take `Fc1ccc(Cn2c(NC3CCN(Cc4nc5ccccc5[nH]4)CC3)nc3ccccc32)cc1.O` [Compound 2, N-[1-(1H-benzimidazol-2-ylmethyl)-4-piperidinyl]-1-(4fluorophenylmethyl)-1H-benzimidazol-2-amine monohydrate]: the ED50 turned out to be 0.63 mg/kg.

Still in this experiment, the particulars now being: dose protecting 50% of animals; subcutaneous or oral, 1 h before compound 48/80 0.5 mg/kg i.v.; survival after 4 h; 0.5 mg/kg, 240 min.
`Fc1ccc(Cn2c(NC3CCN(CCNc4nccs4)CC3)nc3ccccc32)cc1` [Compound 16]: the “compound 48/80 lethality test in rats-ED50” value is 0.08 mg/kg body weight.

In a further experiment the test system is effects of serotonin in the gastric lesion test. The experiment can be described thus: Antagonistic activity on the effects of serotonin in the gastric lesion test (lesions induced by compound 48/80). The class given is in vivo, rat (male, Wistar inbred strain). The note with it: Rattus norvegicus; read-out: gastric lesion test ED50. The source says: The compounds of formula (I) and the pharmaceutically acceptable acid addition salts thereof are also potent serotonin-antagonists. The potency of the subject compounds as serotonin-antagonists is clearly evidenced by the results obtained in the following tests wherein the antagonistic activity of the subject compounds on the effect of serotonin is examined.
Antagonistic activity on the effects of serotonin in the gastric lesion test.
The shock, followed by dead, can be avoided if the rats are pretreated with a classical H 1 antagonist.
Male rats of a Wistar inbred strain, weighing 220-250 g, were starved overnight, water being available ad libitum. The test compounds were administered orally as a solution or as a suspension in aqueous medium. A control rat and a "blank" rat received the test compound. One hour later 5-[4-(diphenylmethyl)-1-piperazinylmethyl]-1-methyl-1H-benzimidazole-2-methanol was administered subcutaneously to all rats at the dose of 2.5 mg/kg.
Four hours after the intravenous injection of compound 48/80, the rats were decapitated and the stomachs were removed. Subsequently the stomachs were inspected for distension and contents (blood, fluid, food) and thoroughly rinsed. The macroscopic lesions were scored from 0 to +++, 0 corresponding to the complete absence of visible lesions and the highest score corresponding to reddish rough patches covering more than half the glandular area.
As for `Cc1ccc(Cn2c(NC3CCN(CCNc4nccs4)CC3)nc3ccccc32)cc1` [Compound 62], the ED50 amounted to 0.63 mg/kg.
`CNc1nc(CCN2CCC(Nc3nc4ccccc4n3Cc3ccc(F)cc3)CC2)cs1` [Compound 98, 1-[(4-fluorophenyl)methyl]-N-[1-[2-[2-(methylamino)-4-thiazolyl]-ethyl]-4-piperidinyl]-1H-benzimidazol-2-amine]: the ED50 came to 0.16 mg/kg.
For the compound `CNC(=O)N(CCN1CCC(Nc2nc3ccccc3n2Cc2ccc(F)cc2)CC1)c1nccs1` [Compound 103, N-[2-[4-[[1-[(4-fluorophenyl)methyl]-1H-benzimidazol-2-yl]amino]-1-piperidinyl]ethyl]-N'-methyl-N-(2-thiazolyl)urea], the ED50 was determined as 0.63 mg/kg.
